In paper PMC12249833, “Discovery and Characterization of Novel Non-Hydroxamate HDAC11 Inhibitors” (International Journal of Molecular Sciences, 2025):
Read-outs that look alike come from different tables or passages of the source. Blank lines part the entries; values can stand above or below the molecule they belong to.

Columns and labels:
HDAC11 [1] = target: T1, HDAC11 (Homo sapiens, UniProt Q96DB2); assay: HDAC11 fluorimetric enzyme activity assay (Boc-Lys(TFA)-AMC), dose-response; format: biochemical
T1 construct: His6 (N); SUMO (N); made in house; host or cells: E. coli BL21 (DE3)
T1 sequence (Q96DB2 1-347): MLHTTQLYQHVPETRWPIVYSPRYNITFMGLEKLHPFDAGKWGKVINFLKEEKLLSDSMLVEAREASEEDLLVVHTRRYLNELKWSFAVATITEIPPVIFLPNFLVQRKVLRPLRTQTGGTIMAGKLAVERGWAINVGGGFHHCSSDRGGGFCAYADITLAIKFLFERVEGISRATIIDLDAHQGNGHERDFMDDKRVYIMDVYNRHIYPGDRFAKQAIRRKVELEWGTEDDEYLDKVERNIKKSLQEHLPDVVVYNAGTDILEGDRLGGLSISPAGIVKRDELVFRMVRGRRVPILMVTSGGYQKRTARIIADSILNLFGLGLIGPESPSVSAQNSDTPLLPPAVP

HDAC1 = HDAC1 (Homo sapiens, UniProt Q13547); assay: Isoenzyme selectivity, HDAC1 dose-response; format: biochemical; details: means ± standard deviation (n = 3)
HDAC1, sequence (Q13547 whole entry, species assumed): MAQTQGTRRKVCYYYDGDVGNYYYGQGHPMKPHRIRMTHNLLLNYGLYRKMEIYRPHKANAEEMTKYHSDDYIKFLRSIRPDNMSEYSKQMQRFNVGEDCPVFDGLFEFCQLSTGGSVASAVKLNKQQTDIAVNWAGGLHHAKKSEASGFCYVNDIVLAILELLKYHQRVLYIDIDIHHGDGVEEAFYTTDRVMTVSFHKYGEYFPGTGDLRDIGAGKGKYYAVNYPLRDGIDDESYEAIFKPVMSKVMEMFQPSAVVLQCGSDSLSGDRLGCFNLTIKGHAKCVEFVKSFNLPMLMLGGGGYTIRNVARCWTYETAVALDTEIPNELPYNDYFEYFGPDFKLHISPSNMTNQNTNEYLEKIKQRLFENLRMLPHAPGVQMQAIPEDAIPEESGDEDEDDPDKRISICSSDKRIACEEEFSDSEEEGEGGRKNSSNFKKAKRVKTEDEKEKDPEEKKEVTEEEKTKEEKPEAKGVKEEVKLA

HDAC4 = HDAC4 (Homo sapiens, UniProt P56524); assay: Isoenzyme selectivity, HDAC4 dose-response; format: biochemical; details: means ± standard deviation (n = 3)
HDAC4, sequence (P56524 whole entry, species assumed): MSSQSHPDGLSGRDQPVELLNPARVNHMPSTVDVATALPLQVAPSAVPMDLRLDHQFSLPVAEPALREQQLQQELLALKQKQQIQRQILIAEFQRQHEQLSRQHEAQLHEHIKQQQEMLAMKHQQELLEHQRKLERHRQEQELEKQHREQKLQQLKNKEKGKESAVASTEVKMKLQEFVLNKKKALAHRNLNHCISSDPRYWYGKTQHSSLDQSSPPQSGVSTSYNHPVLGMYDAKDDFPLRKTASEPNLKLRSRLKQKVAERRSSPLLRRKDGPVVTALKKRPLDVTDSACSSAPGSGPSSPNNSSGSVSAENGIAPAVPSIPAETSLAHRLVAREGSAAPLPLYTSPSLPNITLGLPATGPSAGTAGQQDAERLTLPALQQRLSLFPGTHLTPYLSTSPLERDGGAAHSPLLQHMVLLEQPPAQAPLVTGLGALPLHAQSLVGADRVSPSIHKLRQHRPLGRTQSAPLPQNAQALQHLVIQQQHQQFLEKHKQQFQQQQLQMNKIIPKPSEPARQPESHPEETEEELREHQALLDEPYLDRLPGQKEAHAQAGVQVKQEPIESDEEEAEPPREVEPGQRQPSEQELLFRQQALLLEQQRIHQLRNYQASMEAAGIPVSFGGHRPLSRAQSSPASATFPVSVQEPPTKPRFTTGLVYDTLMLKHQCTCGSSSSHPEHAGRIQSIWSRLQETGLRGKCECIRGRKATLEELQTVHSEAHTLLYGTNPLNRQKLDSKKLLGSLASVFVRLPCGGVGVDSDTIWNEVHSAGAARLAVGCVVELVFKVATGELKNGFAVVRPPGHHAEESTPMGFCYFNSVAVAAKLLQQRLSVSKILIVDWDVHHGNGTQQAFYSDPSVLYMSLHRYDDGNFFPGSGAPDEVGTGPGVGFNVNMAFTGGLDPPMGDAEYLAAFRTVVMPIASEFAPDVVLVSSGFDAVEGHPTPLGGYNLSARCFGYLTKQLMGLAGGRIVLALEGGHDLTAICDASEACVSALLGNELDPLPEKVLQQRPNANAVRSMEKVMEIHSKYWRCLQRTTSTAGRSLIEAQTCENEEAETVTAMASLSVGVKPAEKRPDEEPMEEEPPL

HDAC6 = target: T2, HDAC6 (Homo sapiens, UniProt Q9UBN7); assay: Isoenzyme selectivity, HDAC6 dose-response; format: biochemical; details: means ± standard deviation (n = 3)
T2 sequence (Q9UBN7 1-1215): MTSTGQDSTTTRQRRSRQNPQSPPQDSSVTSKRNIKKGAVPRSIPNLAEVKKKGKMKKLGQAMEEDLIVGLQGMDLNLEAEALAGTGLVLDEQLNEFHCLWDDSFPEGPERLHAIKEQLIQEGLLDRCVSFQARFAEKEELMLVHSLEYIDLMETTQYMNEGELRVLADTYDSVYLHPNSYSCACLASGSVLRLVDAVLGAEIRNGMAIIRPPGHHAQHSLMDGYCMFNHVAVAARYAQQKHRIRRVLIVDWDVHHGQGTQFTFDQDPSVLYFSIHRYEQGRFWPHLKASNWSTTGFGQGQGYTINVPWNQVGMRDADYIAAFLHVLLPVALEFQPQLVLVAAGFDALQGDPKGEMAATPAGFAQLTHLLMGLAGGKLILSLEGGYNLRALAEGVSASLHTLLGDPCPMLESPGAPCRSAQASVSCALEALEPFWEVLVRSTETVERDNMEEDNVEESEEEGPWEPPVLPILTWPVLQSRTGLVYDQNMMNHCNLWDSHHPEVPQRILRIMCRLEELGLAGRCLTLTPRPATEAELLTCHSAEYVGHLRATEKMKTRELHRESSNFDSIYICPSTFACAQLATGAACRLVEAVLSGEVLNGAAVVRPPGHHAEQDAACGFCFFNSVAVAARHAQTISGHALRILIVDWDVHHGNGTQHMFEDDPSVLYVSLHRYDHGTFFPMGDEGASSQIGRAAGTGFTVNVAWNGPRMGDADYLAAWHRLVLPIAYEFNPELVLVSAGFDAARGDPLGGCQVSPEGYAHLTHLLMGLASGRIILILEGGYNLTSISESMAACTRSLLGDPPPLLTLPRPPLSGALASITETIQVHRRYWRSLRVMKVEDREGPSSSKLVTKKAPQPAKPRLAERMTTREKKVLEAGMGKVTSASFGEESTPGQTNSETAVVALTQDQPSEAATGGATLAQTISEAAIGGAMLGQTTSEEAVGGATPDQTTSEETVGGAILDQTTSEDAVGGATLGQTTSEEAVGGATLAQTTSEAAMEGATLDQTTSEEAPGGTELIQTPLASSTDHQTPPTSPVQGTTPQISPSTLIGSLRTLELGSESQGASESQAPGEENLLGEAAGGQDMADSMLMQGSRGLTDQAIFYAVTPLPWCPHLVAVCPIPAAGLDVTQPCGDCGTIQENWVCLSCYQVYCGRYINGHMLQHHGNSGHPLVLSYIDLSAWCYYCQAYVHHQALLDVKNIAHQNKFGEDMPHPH

HDAC8 = target: T3, HDAC8 (Homo sapiens, UniProt Q9BY41); assay: Isoenzyme selectivity, HDAC8 dose-response; format: biochemical; details: means ± standard deviation (n = 3)
T3 sequence (Q9BY41 1-377): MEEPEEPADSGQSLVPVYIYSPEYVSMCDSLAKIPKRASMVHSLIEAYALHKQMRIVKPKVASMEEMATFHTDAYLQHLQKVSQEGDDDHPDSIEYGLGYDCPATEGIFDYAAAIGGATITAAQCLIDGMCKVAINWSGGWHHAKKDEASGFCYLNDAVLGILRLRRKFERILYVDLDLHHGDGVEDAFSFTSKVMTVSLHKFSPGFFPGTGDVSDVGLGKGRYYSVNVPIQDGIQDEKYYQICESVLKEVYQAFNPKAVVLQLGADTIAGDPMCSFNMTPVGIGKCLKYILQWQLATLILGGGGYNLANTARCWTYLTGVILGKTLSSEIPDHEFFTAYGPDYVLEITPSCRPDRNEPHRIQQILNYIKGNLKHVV

[2] = Cytotoxicity testing (XTT) against HEK293; format: cell-based; details: human, HEK293 cells, HEK293, 100 µM compound concentration, read-out: Cell viability
Description: (§1) Figure S10: Cytotoxicity testing of indicated compound against HEK293 cell. 5000 HEK293 cells were seeded in 96-Well plates. After 48h Inkubationszeit at 37°C and 5% CO2 in DMEM supplemented with 10% FBS and 1% Pen/Strep. A serial 1:2 dilution starting with 100 uM of compounds was added and incubated for a further 24h. XTT reagent was added and incubated for 4h. Afterwards the absorbance was measure at 450 nm and 600 nm. Data points are mean values ± standard error, n ≥ 6.
(§2) 9SPC045H03 in the enzyme activity assay is not due to compound-substrate interference. […]

HEK293 normal cells = assay: Cytotoxicity testing (XTT) against HEK293; format: cell-based; details: HEK293, up to 100 uM, 24h
Description: as §1, §2

HDAC11 [3] = target: T1, HDAC11; assay: Rapid dilution experiment (reversibility of binding); format: biochemical; details: 10× IC50, 100-fold rapid dilution, recovery of enzyme activity
Description: The inhibitors were evaluated for reversible inhibition in an enzyme activity assay. […] After equilibration for 1 h at 30 °C, this solution is diluted 100-fold directly into 80 μM of the substrate Boc-Lys(TFA)-AMC. After a further hour of incubation, the reaction was stopped as indicated in the enzyme activity assay section.

HDAC11 [4] = target: T1, HDAC11; assay: Time-dependent IC50 / pre-incubation one-step enzyme assay; format: biochemical; details: pre-incubation for different times up to 60 min
HDAC11 [5] = target: T1, HDAC11; assay: High-throughput screening, residual HDAC11 enzyme activity; format: biochemical; details: final compound concentration 10 µM
HDAC11 [6] = target: T1, HDAC11; details: Figure 1 / text; read-out: HDAC11 IC50 of known inhibitors; cited from earlier work
HDAC11 [7] = target: T1, HDAC11; set-up: method as in PMID 31264832; details: 50 µM; cited from earlier work
[8] = means ± standard deviation (n = 3), read-out: IC50 against HDAC11

SMILES: O=C(CCc1ccccc1)c1c(O)cc(O)cc1O [9SPC036F04]
IC50 (HDAC11 [1]; [8]): > 50000 nM

SMILES: Oc1c(C(Nc2cccc(C(F)(F)F)c2)c2ccncc2)ccc2cccnc12 (centres unmarked) [9SPC045H03]
Selectivity for HDAC11 against HDAC8 (HDAC11 [1]; from IC50 values of Table 2): about 3 fold | Selectivity for HDAC11 with respect to HDACs 1, 4, and 6 (HDAC11 [1]; from IC50 values of Table 2): more than 30 fold | IC50 (HDAC11 [1]; [8]): 2300 ± 500 nM | IC50 (HDAC1): > 70000 nM | IC50 (HDAC4): > 70000 nM | IC50 (HDAC6): 67000 nM | IC50 (HDAC8): 13000 ± 5000 nM | viability at 24 h, 100 µM [2]: 50% | Cytotoxic effect (in words) (HEK293 normal cells): moderately toxic effect | Reversibility of binding to HDAC11 (HDAC11 [3]): reversible binding | Time-dependence of HDAC11 inhibition (HDAC11 [4]): no time-dependent inhibition

SMILES: O=C(O)/C=C/c1ccc(O)c(O)c1 [9LOP003E09, caffeic acid]
IC50 (HDAC11 [1]; [8]): > 100000 nM

SMILES: Cc1cccc2nc(SCc3ccc(C(=O)NO)cc3)n(-c3ccccc3F)c(=O)c12 [9HDA020C07]
IC50 (HDAC11 [1]; [8]): 1500 ± 300 nM

SMILES: N#C/C(=C\c1ccc(O)c(O)c1)C(=O)NCc1ccccc1 [9LOP015E07, Tyrphostin AG 490]
IC50 (HDAC11 [1]): 14000 ± 3000 nM | Res. HDAC activity (residual HDAC11 activity) (HDAC11 [5]): 65%

SMILES: Cc1ccccc1-n1c(SCc2ccc(C(=O)NO)cc2)nc2cccc(C)c2c1=O [9HDA020C08]
IC50 (HDAC11 [1]; [8]): 3500 ± 800 nM

SMILES: CCCCCCCCCCCCCCCCNNC(=O)c1cccs1 [SIS17]
IC50 (HDAC11 [6]): 850 nM | Degree of myristoylation of the HDAC11 substrate SHMT2 in cells (HDAC11 [7]): significantly increased

SMILES: O=C(/C=C/c1ccc(O)c(O)c1)OCCc1ccccc1 [CAPE, caffeic acid phenethyl ester]
IC50 (HDAC11 [1]; [8]): 1500 nM | IC50 (HDAC1): 22000 ± 5000 nM | IC50 (HDAC4): 68000 ± 30000 nM | IC50 (HDAC6): > 70000 nM | IC50 (HDAC8): 7000 ± 2000 nM | Res. HDAC activity (residual HDAC11 activity) (HDAC11 [5]): 46% | Cytotoxic effect (in words) (HEK293 normal cells): did not show cytotoxic effects | Reversibility of binding to HDAC11 (HDAC11 [3]): reversible binding | Time-dependence of HDAC11 inhibition (HDAC11 [4]): no time-dependent inhibition

SMILES: O=C(C=Cc1ccc(N=Cc2ccc([N+](=O)[O-])cc2)cc1)OCCc1ccccc1 [9SPC056H05]
Res. HDAC activity (residual HDAC11 activity) (HDAC11 [5]): 97%

SMILES: O=C1NC(=O)/C(=C/c2ccc(O)nc2)S1 [9HDA018E08]
IC50 (HDAC11 [1]; [8]): 19000 ± 2000 nM

SMILES: N#C/C(=C\c1ccc(O)c(O)c1)C(=O)NCCCc1ccccc1 [9LOP015D09, Tyrphostin AG 555]
IC50 (HDAC11 [1]; [8]): 4300 ± 3000 nM | Res. HDAC activity (residual HDAC11 activity) (HDAC11 [5]): 49%

Now from value to molecule:

IC50 (HDAC11 [1]; [8]): 2000 ± 200 nM
SMILES: Cc1ccc(-n2c(SCc3ccc(C(=O)NO)cc3)nc3ccccc3c2=O)cc1 [9HDA020B05]

IC50 (HDAC11 [1]; [8]): 2000 ± 300 nM
SMILES: O=C(NO)c1ccc(CSc2nc3ccccc3c(=O)n2-c2cccc(Cl)c2)cc1 [9HDA020B10]

IC50 (HDAC11 [1]; [8]): 1900 ± 400 nM | IC50 (HDAC1): 2300 ± 500 nM | IC50 (HDAC4): 900 ± 400 nM | IC50 (HDAC6): 900 ± 300 nM | IC50 (HDAC8): 6000 ± 1000 nM
SMILES: Cc1cccc2nc(SCc3ccc(C(=O)NO)cc3)n(-c3ccc(Cl)cc3)c(=O)c12 [9HDA020C09]

IC50 (HDAC11 [1]; [8]): 1600 ± 300 nM
SMILES: Cc1cccc(-n2c(SCc3ccc(C(=O)NO)cc3)nc3ccccc3c2=O)c1 [9HDA020B09]

IC50 (HDAC11 [1]; [8]): 1100 ± 400 nM | IC50 (HDAC1): 1400 ± 400 nM | IC50 (HDAC6): 200 ± 100 nM | Res. HDAC activity (residual HDAC11 activity) (HDAC11 [5]): 58%
SMILES: Cc1cccc2nc(SCc3ccc(C(=O)NO)cc3)n(-c3ccccc3)c(=O)c12 [9HDA020C06]

IC50 (HDAC11 [1]; [8]): 2000 ± 200 nM
SMILES: Cc1ccc(-n2c(SCc3ccc(C(=O)NO)cc3)nc3ccccc3c2=O)c(C)c1 [9HDA020B08]

IC50 (HDAC11 [1]; [8]): 2100 ± 200 nM
SMILES: O=C(NO)c1ccc(CSc2nc3ccccc3c(=O)n2-c2ccccc2)cc1 [9HDA020B04]

IC50 (HDAC11 [1]; [8]): 4100 ± 500 nM
SMILES: O=C(NO)c1ccc(CSc2nc3ccccc3c(=O)n2-c2ccccc2F)cc1 [9HDA020B11]

IC50 (HDAC11 [1]; [8]): 1600 ± 200 nM
SMILES: CCc1ccc(-n2c(SCc3ccc(C(=O)NO)cc3)nc3cccc(C)c3c2=O)cc1 [9HDA020B06]

IC50 (HDAC11 [1]; [8]): 2000 ± 500 nM
SMILES: O=C(NO)c1ccc(CSc2nc3cc(Cl)ccc3c(=O)n2-c2ccccc2F)cc1 [9HDA020C04]

IC50 (HDAC11 [1]; [8]): 2600 ± 400 nM
SMILES: O=C(NO)c1ccc(CSc2nc3ccccc3c(=O)n2-c2ccc(Br)cc2)cc1 [9HDA020B07]
